Measured values taken from US4094908A, “Alpha-substituted benzhydrol derivatives” (Richter Gedeon Vegyeszeti Gyar Rt., priority 1973, dated 1978).

Legend:
[1] = system: bromosulfophthalein elimination; test: Bromosulfophthalein (BSP) concentration of the plasm after pre-treatment; assay type: in vivo; conditions: 24 hours after pre-treatment; after i.v. bromsulfophthaleine
Protocol: The bromosulfophthalein (BSP) concentration of the plasm was determined 24 hours after pre-treatment with the compounds of the formula (I) and after the intravenous administration of bromsulfophthaleine, respectively (Varga, F., Fisher, E.: Acta Physiol. Hung. 36, 431, 1969).

[2] = system: liver microsomal enzyme system; test: Promotion or inhibition of the liver microsomal enzyme system; assay type: in vivo; conditions: in words
Text: Tests per the methods described herein have shown compounds to be either effective in the promotion or inhibition of the liver microsomal enzyme system as follows: […]

meprobamate elimination = test: Biological halving period of meprobamate after pre-treatment; assay type: in vivo; conditions: 24 hours after pre-treatment
Protocol: The biological halving period of meprobamate was determined 24 hours after pre-treatment with the compounds of the formula (I) (Ludwig, B. J., Hoffman, A. J.; Arch. Biochem. 72, 234, 1957).

hexobarbital oxidase = test: Enzyme-inducing potency: in vivo hexobarbital oxidase activity (duration of hexobarbital narcosis); design: species or system Female Wistar rats; conditions: 24 hours before hexobarbital
Protocol: […] 24 and 48 hours after the administration of the active agent, respectively, the animals were narcotized with 40 mg./kg. i.v. dosage of hexobarbital sodium, and the time elapsed until complete wakening was measured (Noordhock, J.: Eur. J. Pharmacol. 3, 242, 1968). The data were recorded, and the mean values, the standard errors, as well as the percentage increase with respect to the controls were calculated for each group. […] The hexobarbital concentration of the plasma, measured on the instant of wakening, was the same for both the treated and the control animals, thus the increase of narcosis period was not due to a certain central nervous interaction (Jori, A., Bianchatti, A., Presentini, P. E.: Biochem. Pharmacol. 19, 2687, 1970).
The enzyme-inducing potency of the new compounds was determined by several methods. One of these methods was the in vivo measurement of hexobarbital oxidase activity.
The decrease of narcosis period is due to the fact that the new compounds according to the invention accelerate the elimination of hexobarbital, a foreign substance, from the body. When administering the compound to be tested in a single dosage and measuring the duration of hexobarbital narcosis 24 hours after the administration, the following results are obtained: […]

central nervous system = assay type: in vivo, mice and rats; conditions: for Central nervous effects: in words, in contrast with phenobarbital
Text: The central nervous activities of the compounds according to the invention were examined on mice and rats with the following methods: electroshock (Swinyard, E. A., Brown, W. C., Goodman, L. S.: J. Pharmacol. Exp. Ther. 106, 319, 1952), metrazol spasm (Everett, G. M., Richards, R. K.: J. Pharmacol. Exp. Ther. 81, 402: 1944), thiosemicarbezide spasm (Da Venzo, J. P. Greig, M. E., Cormin, M. A.: Amer. J. Physiol. 201, 833: 1961), strychnine spasm (Kerley, T. L., Richards, A. G., Begley, R. W., Abreu, B. B. Wesver, L. C.: J. Pharmacol. Exp. Ther. 132, 360: 1961), nicotine spasm (Stone, C. A., Mecklenburg, K. L., Torhans, M. L.: Arch. Int. Pharmacodyn. 117, 419: 1958), rotarod test (Kinnard, W. C., Carr, C. J.: J. Pharmacol. Expt. Ther. 121, 3, 54: 1957), physistigmine lethality preventing effect (Nose, T., Kojima, M.: Europ. J. Pharmacol. 10, 83: 1970), yohimbine potentiation effect (Quinton, R. M.: Brit. J. Pharmacol. 21, 51: 1963), and analgesic activity (Bianchi, G., Franceschini, J.: Brit. J. Pharm. Chemother. 9, 280: 1954). As reference substance, phenobarbital was used. […]

[3] = system: liver microsomal enzyme system; test: Biological halving period of hexobarbital and hexobarbital concentration at wakening; assay type: in vivo; conditions: pre-treated 24 hours prior to hexobarbital; female rats 150 g
bilirubin elimination = test: Bilirubin elimination under in vivo conditions; design: species or system rats; conditions: for t1/2 (biological halving period of bilirubin): pre-treated rats, 30 mg./kg. free bilirubin i.v.
Protocol: When examining the bilirubin elimination under in vivo conditions on rats pre-treated with E 15 or phenobarbital, respectively, and challenged intravenously with a dosage of 30 mg./kg. of free bilirubin, the following biological halving periods were determined (Krueger, H., Higginson, J.: Proc. Soc. Exp. Biol. Med. 107, 43, 1961): […]

[4] = Toxicity: perished animals/tested animals; assay type: in vivo
Text: Despite its disadvantageous properties, phenobarbital is widely used in the treatment of neonatal jaundice. In order to enable a better comparison, Table 8 indicates the respective dosages in which phenobarbital causes lethal respiration paralysis, while the compounds according to the invention are completely innocuous.

[5] = system: UDP-glucoronyltransferase; test: UDP-glucuronyltransferase activity of liver tissues removed from pre-treated animals (bilirubin conjugation); assay type: in vivo; conditions: liver tissues of pre-treated animals incubated with bilirubin
Protocol: In an in vivo test, liver tissues removed from animals pre-treated with compounds of the formula (I) were incubated in the presence of bilirubin, in order to determine the UDP-glucoronyltransferase activity of the liver tissues (Adlard, B. P. F., Lester, R. G., Lathe, G. H.: Biochem Pharmacol. 18, 59, 1969).

[6] = neonatal jaundice; in words; cited from earlier work

SMILES	Sleeping period ± standard error (hexobarbital oxidase; 5 mg./kg. single dosage)	Sleeping period ± standard error (hexobarbital oxidase; 10 mg./kg. single dosage)	Sleeping period ± standard error (hexobarbital oxidase; 20 mg./kg. single dosage)	Sleeping period ± standard error (hexobarbital oxidase; 40 mg./kg. single dosage)	Central nervous effects (central nervous system)	t1/2 (biological halving period of bilirubin) (bilirubin elimination)	Perished animals/tested animals ([4]; 40 mg./kg)	Perished animals/tested animals ([4]; 80 mg./kg)	Perished animals/tested animals ([4]; 160 mg./kg)	Perished animals/tested animals ([4]; 320 mg./kg)	Perished animals/tested animals ([4]; 640 mg./kg)	further results
CCC(O)(c1ccccc1)c1cccc(C(F)(F)F)c1 (stereo not drawn) [E 15, 3-Trifluoromethyl-α-ethyl-benzhydrol]	18.0 ± 1.7	14.2 ± 1.5	10.6 ± 1.2	8.8 ± 0.9	no central nervous effects	7 min	0/10	0/10	0/10	0/10	0/10	BSP concentration of the plasm [1]: 5.0 μg./mg. plasm; Effect on the liver microsomal enzyme system (inducing or inhibiting) [2]: particularly advantageous inducing effect; Potency among the enzyme inducing or inhibiting compounds [2]: particularly potent; Duration and strength of inducing effect compared with phenobarbital ([2]; compared with phenobarbital): reaches that of phenobarbital; t1/2 (biological halving period of meprobamate) (meprobamate elimination): 2.1 hours; t1/2 (biological halving period of hexobarbital) [3]: 23 min.; Acceleration of bilirubin elimination compared with phenobarbital (bilirubin elimination; rats, in words): about twice stronger than that of phenobarbital; Conjugated bilirubine [5]: 37.4 ± 3.6 µg/g/h
CCC1(c2ccccc2)C(=O)NC(=O)NC1=O [Phenobarbital, reference compound]	20.1 ± 2.0	14.3 ± 1.4	14.0 ± 1.3	12.5 ± 1.2	hypnotic and respiration paralyzing effects	13 min	0/10	0/10	4/10	9/10	10/10	Central nervous activity (central nervous system; oral 40, 120 and 150 mg./kg., phenobarbital effect even at 40 mg./kg.): strong anticonvulsive muscle-incoordinating and sedative effects; Side effects [6]: toxic (sedative and respiration-paralyzing) side effects
